Consider four molecules from ChEMBL document CHEMBL4007384, “Synthesis and optimization of furano[3,2-d]pyrimidines as selective spleen tyrosine kinase (Syk) inhibitors” (Bioorg Med Chem Lett, 2016).

A value given as a limit tells only on which side of the number the result lay.

Assay [1] concerns the target T1, Serine/threonine-protein kinase TAO2 (Homo sapiens, UniProt Q9UL54).
T1 sequence (Q9UL54 whole entry): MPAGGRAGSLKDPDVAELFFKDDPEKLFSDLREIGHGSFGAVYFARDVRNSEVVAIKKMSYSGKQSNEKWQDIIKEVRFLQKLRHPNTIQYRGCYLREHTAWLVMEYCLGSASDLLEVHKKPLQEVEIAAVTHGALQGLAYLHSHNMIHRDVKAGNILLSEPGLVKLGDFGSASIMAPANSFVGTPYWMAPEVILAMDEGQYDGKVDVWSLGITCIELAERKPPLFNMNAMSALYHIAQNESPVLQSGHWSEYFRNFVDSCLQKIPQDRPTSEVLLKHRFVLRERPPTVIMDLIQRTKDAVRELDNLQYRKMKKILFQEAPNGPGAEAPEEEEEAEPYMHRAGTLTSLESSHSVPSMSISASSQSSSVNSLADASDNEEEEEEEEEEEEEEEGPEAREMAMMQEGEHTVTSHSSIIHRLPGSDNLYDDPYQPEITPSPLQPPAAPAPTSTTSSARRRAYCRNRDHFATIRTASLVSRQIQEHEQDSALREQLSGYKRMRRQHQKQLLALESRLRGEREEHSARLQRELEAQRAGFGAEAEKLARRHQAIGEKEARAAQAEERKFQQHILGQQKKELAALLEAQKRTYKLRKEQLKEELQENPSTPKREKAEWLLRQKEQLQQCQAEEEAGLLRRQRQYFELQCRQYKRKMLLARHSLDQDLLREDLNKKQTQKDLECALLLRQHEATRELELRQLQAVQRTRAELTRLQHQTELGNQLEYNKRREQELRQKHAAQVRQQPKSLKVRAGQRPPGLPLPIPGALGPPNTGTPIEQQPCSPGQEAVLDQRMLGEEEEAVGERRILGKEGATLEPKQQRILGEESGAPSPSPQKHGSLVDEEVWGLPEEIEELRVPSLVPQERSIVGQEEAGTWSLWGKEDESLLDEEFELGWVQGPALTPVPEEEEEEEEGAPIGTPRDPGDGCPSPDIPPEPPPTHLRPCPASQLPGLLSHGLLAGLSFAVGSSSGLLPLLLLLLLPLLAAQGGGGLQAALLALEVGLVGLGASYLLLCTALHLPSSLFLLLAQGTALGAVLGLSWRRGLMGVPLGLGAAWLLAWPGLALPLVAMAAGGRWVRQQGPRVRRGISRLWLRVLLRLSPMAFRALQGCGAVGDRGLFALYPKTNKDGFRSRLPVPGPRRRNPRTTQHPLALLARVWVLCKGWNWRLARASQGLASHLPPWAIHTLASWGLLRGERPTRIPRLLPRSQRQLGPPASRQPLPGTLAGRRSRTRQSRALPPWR
Description: Inhibition of TAOK2 (unknown origin) after 60 mins by TR-FRET assay. On the technique in general: In TR-FRET formats the signal depends on donor and acceptor labels being close together.

Assay [2] concerns the target T2, Serine/threonine-protein kinase D3 (Homo sapiens, UniProt O94806).
T2 sequence (O94806 whole entry): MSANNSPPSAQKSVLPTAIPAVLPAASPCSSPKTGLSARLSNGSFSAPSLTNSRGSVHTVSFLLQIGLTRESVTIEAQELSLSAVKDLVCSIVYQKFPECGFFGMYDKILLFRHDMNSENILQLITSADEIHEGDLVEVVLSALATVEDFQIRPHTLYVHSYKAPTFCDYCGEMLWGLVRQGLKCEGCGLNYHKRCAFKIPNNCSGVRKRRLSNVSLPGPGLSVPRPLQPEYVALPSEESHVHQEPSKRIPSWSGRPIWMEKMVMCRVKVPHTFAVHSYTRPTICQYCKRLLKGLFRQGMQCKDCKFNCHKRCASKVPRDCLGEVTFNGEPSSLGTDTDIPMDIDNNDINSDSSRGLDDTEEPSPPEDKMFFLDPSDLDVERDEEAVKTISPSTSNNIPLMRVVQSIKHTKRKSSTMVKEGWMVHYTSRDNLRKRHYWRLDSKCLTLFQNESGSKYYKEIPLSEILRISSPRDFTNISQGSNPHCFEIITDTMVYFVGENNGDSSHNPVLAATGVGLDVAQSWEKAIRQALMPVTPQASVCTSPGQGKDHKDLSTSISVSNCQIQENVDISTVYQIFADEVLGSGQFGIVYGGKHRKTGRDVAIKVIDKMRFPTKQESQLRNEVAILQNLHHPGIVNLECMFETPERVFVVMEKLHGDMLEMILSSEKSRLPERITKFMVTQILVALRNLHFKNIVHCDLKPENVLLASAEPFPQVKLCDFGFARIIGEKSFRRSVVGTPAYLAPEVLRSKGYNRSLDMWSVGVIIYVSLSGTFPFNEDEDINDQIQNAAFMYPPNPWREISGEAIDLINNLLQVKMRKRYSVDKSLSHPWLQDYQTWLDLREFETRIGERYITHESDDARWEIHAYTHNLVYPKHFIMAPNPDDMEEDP
In words: Inhibition of Prkcn (unknown origin) after 60 mins by TR-FRET assay.

In assay [3] the target is Dual specificity protein kinase CLK2 (Homo sapiens, UniProt P49760). In words: Inhibition of CLK2 (unknown origin) after 60 mins by TR-FRET assay.
Sequence of Dual specificity protein kinase CLK2 (P49760 whole entry): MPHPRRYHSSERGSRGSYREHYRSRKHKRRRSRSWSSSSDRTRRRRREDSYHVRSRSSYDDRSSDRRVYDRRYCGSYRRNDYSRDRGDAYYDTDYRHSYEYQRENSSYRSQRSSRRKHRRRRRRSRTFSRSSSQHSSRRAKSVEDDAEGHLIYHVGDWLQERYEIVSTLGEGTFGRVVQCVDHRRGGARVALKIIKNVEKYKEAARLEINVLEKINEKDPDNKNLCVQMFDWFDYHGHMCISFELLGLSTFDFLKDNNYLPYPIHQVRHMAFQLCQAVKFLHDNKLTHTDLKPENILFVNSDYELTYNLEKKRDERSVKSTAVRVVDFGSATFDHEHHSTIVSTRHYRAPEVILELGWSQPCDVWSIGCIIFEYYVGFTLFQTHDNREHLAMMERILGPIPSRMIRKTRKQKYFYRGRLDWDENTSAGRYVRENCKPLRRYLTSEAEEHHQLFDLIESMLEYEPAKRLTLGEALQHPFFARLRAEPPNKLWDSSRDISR

As to `FC(F)(F)CNc1nc(Nc2ccc(N3CCOCC3)c(Cl)c2)nc2ccoc12`, the IC50 in assay [1], in assay [2] and in assay [3] was over 10 µM each time.
Turning to `FC(F)(F)CNc1nc(Nc2ccc3cn[nH]c3c2)nc2ccoc12`, the IC50 in assay [1] was over 10 µM; in assay [2], over 10 µM; in assay [3] it was 6.44 µM.
On to `Cc1n[nH]c2cc(Nc3nc(NC4CC4)c4occc4n3)ccc12`, for which the IC50 in assay [1], in assay [2] and in assay [3] was over 10 µM in each case.
Consider `CC1(C)OCC(=O)Nc2cc(Nc3nc(NCC(F)(F)F)c4occc4n3)ccc21`, for which the figures for the IC50 in assay [1], in assay [2] and in assay [3] were 8.52 µM, over 10 µM and over 10 µM, respectively.

A word on the IC50: it is the concentration that inhibits the measured activity by half.
